Assay results taken from ChEMBL document CHEMBL4392835, “New heteroaryl carbamates: Synthesis and biological screening in vitro and in mammalian cells of wild-type and mutant HIV-protease inhibitors” (Bioorg Med Chem, 2019).
Calls of active or inactive are those of the source. The rule behind the calls is not given here.

Columns and labels:
[1] = Inhibition of HIV protease assessed as reduction in enzyme-mediated substrate hydrolysis using Abz-Thr-Ile-Nle-Phe(NO2)-Gln-Arg fluorogenic substrate; design: species or system Human immunodeficiency virus
[2] = Cytotoxicity in HEK293 cells assessed as reduction in cell viability after 24 hrs by MTT assay; format: cell-based; settings: human
[3] = molecular target: Protease (Human immunodeficiency virus 1) (UniProt Q9YQ12); test: Inhibition of GFP-tagged HIV1 protease transfected in HEK293 cells at 10 to 30 uM incubated for 24 hrs by FACS analysis; format: cell-based
Sequence of Protease (Human immunodeficiency virus 1) (Q9YQ12 as listed by the source): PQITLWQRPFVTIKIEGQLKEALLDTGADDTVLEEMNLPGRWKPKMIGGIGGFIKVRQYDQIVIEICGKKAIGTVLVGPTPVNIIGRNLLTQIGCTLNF

[4] = molecular target: Protease (Human immunodeficiency virus 1) (UniProt Q9YQ12); test: Inhibition of GFP-tagged HIV1 protease transfected in HEK293 cells at 30 uM incubated for 24 hrs by fluorescence microscopy; format: cell-based
[5] = Cytotoxicity in HEK293 cells assessed as reduction in cell viability by MTT assay; format: cell-based; settings: human
[6] = Intrinsic clearance in human liver microsomes assessed per mg protein; format: ADME, Microsome; settings: read-out: CLH
[7] = Intrinsic clearance in rat liver microsomes assessed per mg protein; format: ADME, Microsome; settings: read-out: CLH
[8] = molecular target: Protease (Human immunodeficiency virus 1) (UniProt Q9YQ12); test: Inhibition of GFP-tagged HIV1 protease transfected in HEK293 cells at 10 uM incubated for 24 hrs by FACS analysis; format: cell-based
[9] = system: Protease (Human immunodeficiency virus 1), Q9YQ12 [V32I]; test: Inhibition of GFP-tagged HIV1 protease V32I mutant transfected in HEK293 cells at 10 uM incubated for 24 hrs by fluorescence microscopy; format: cell-based
Sequence of Protease (Human immunodeficiency virus 1), Q9YQ12 [V32I] (Q9YQ12 entry or part of it V32I): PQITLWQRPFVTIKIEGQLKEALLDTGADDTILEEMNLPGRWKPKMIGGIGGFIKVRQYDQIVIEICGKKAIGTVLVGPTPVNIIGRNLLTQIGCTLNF

[10] = system: Protease (Human immunodeficiency virus 1), Q9YQ12 [V82A]; test: Inhibition of GFP-tagged HIV1 protease V82A mutant transfected in HEK293 cells at 10 uM incubated for 24 hrs by fluorescence microscopy; format: cell-based
Sequence of Protease (Human immunodeficiency virus 1), Q9YQ12 [V82A] (Q9YQ12 entry or part of it V82A): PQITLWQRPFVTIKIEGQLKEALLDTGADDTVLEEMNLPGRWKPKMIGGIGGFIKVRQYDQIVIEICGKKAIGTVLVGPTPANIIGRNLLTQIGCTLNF

[11] = molecular target: Protease (Human immunodeficiency virus 1) (UniProt Q9YQ12); test: Inhibition of GFP-tagged HIV1 protease transfected in HEK293 cells at 30 uM incubated for 24 hrs by FACS analysis; format: cell-based
[12] = molecular target: Protease (Human immunodeficiency virus 1) (UniProt Q9YQ12); test: Inhibition of GFP-tagged HIV1 protease transfected in HEK293 cells at 10 uM incubated for 24 hrs by fluorescence microscopy; format: cell-based
[13] = system: Protease (Human immunodeficiency virus 1), Q9YQ12 [V32I]; test: Inhibition of GFP-tagged HIV1 protease V32I mutant transfected in HEK293 cells at 30 uM incubated for 24 hrs by fluorescence microscopy; format: cell-based
[14] = system: Protease (Human immunodeficiency virus 1), Q9YQ12 [V82A]; test: Inhibition of GFP-tagged HIV1 protease V82A mutant transfected in HEK293 cells at 30 uM incubated for 24 hrs by fluorescence microscopy; format: cell-based

SMILES	IC50 [1]	CC50 at 24 h [2]	inhibition [3]	inhibition call (active/not active) [4]	CC50 [5]	microsomal CLint [6]	microsomal CLint [7]	inhibition [8]	inhibition [9]	inhibition [10]	inhibition [11]	inhibition [12]	inhibition [13]	inhibition [14]
COc1ccc(S(=O)(=O)N(CC(C)C)C[C@@H](O)CNC(=O)Oc2ccc3occc3c2)cc1	15.4 µM	> 60 µM	inactive	inactive										
COc1ccc(S(=O)(=O)N(CC(C)C)C[C@@H](O)CNC(=O)Oc2ccc3sccc3c2)cc1	0.049 µM	> 60 µM	inactive	inactive	> 100 µM									
COc1ccc(S(=O)(=O)N(CC(C)C)C[C@@H](O)[C@H](Cc2ccccc2)NC(=O)Oc2ccc3sccc3c2)cc1	0.0108 µM	> 60 µM	inactive	inactive										
COc1ccc(S(=O)(=O)N(CC(C)C)C[C@@H](O)CNC(=O)Oc2ccc3[nH]ccc3c2)cc1	13.4 µM	> 60 µM	inactive	inactive										
COc1ccc(S(=O)(=O)N(CC(C)C)C[C@@H](O)[C@H](Cc2ccccc2)NC(=O)Oc2ccc3[nH]ccc3c2)cc1	≤ 0.0006 µM	> 60 µM	Active	Active	2.8 µM	548 µL/min/mg	522 µL/min/mg	Active	Active	Active				
COc1ccc(S(=O)(=O)N(CC(C)C)C[C@@H](O)[C@H](Cc2ccccc2)NC(=O)Oc2ccc3occc3c2)cc1	≤ 0.0006 µM	> 60 µM	Active	Active	> 100 µM	121 µL/min/mg	26.8 µL/min/mg				Active	Active	Active	Active
CC(C)CN(C[C@@H](O)[C@H](Cc1ccccc1)NC(=O)O[C@H]1CO[C@H]2OCC[C@H]21)S(=O)(=O)c1ccc(N)cc1			Active	Active										
